Source: patent US20160235807A1, “AGONISTS OF GUANYLATE CYCLASE USEFUL FOR DOWNREGULATION OF PRO-INFLAMMATORY CYTOKINES” (SYNERGY PHARMACEUTICALS, INC., priority 2013, published 2016)
Blank lines part the entries; values can stand above or below the molecule they belong to. Bridge positions count the residues as written; N and C are the ends. Square brackets hold non-standard residues; d marks the D form. Ends that are not written are not given here.

Legend:
[1] = tested on: myeloperoxidase (MPO) activity in colon tissues; test: MPO activity in lysates from mid-colon tissues, DSS-induced colitis in BDF-1 mice; assay type: in vivo, mouse; conditions: 5-ASA 100 mg/kg
Protocol: (§1) A total of 40 samples were chosen for analysis of MPO activity and Ki-67 labeling from the treatment groups that received SP-333, its vehicle control (0.1M phosphate buffer, pH 7) and the reference compound (5-ASA). A random number generator (www.random.org) was employed to select samples from these groups (7 from each of the SP-333-recipient groups and 6 from each of the vehicle and 5-ASA groups).
Myeloperoxidase activity in colonic tissue samples was performed according to the method described (Krawisc et al., 1984). Briefly, the rate of change in absorbance at 450 nm was recorded when 20 μl of tissue extract was incubated with […] of reaction buffer containing 0.26 mg/ml 0-dianisidine and 0.6 μl/ml H2O2. Each reaction was performed in triplicate. The rate of reaction was determined (initial slope) and normalized to protein concentration of sample.

[2] = tested on: Ki-67 labeling of crypt epithelial cells; test: Ki-67 labeling in large bowel cross sections, DSS-induced colitis in BDF-1 mice; assay type: in vivo, mouse; conditions: 5-ASA treated mice
From the text: as §1
Employing standard procedures, two non-serial sections from each animal, were de-waxed in xylene and rehydrated in graded alcohols to PBS (pH 7.4). Endogenous peroxidase was blocked by incubation in 0.3% […] for 30 min. Antigen retrieval was performed by placing the slides in 1 L of citrate buffer (pH 6) and microwaving at high power for 20 minutes. After cooling for 15 minutes, sections were incubated with 10% normal goat serum for 30 minutes to block non-specific binding Primary antibody (mouse monoclonal IgG, clone MIB-1, Dako) at 1/50 dilution was added and incubated for 1 hour at room temperature. Sections were washed and incubated with biotinylated secondary IgG antibody (1/200 dilution; Vector Labs Inc.), for 45 minutes at room temperature. Subsequently, slides were washed and incubated with ABC Elite reagents (Vector Labs Inc.), for 30 minutes at room temperature. […] Sections were counterstained with thionine, dehydrated and mounted.

DSS-induced colitis = DSS-induced colitis in BDF-1 mice; assay type: in vivo, mouse
Protocol: To evaluate the efficacy of plecanatide in DSS induced colitis model, 48 BDF-1 mice were divided into 8 treatment groups (6 mice/group). One group was not exposed to DSS (untreated control) and groups 2-8 were treated with 5% DSS in the drinking water on day 0. Plecanatide or SP-333 solutions formulated in 0.1M phosphate buffer (pH 7) was administered by oral gavage, once a day at 0.005, 0.05, 0.5, 2.5 and 5 mg/kg, from study day −1 (i.e. prior to initiation of DSS treatment) through day 6 for SP-333 or day 7 for plecanatide. DSS treatment was initiated on day 0 for groups 2-8 until the end of the study. Sulfasalazine (80 mg/kg) or 5-ASA (100 mg/kg) was used as positive control and was administered daily. Mice were sacrificed on day 7. The large intestine was removed and weighed. Distal section of the large intestine was collected and fixed as described above.
Disease activity index (DAI) was calculated by scoring in-life parameters starting from day −1 until the end of the study. Once daily, all mice were weighed and assessed for stool consistency, and the presence of overt blood in the stool or around the anus essentially similar to that reported earlier. Colitis severity was assessed by histopathological analyses of H&E stained tissue sections (Hegazi et al., 2005; Dave et al., 2009) employing the following criteria: (score 0) normal appearing crypts; (score 1) abnormal crypt pathology without ulceration; (score 2) depleted crypts with ulceration; (score 3) 20-50% depleted crypts and increased ulceration; (score 4) >50% depleted crypts with substantial ulceration and (score 5) totally ulcerated/inflamed colon with no crypts remaining. All slides were scored in a blinded manner. Colitis severity in TCRα−/− model was scored as previously described^25. All slides were scored in a blinded manner. Disease activity index (DAI) was calculated by assessing body weight, stool consistency, and the presence of overt blood in stools or around the anus, essentially similar to that reported earlier (Hamamoto et al., 1999).

NF-κB [3] = test: Inhibition of NF-κB signaling in LPS-stimulated T84 cells, Western blot; assay type: cell-based, human
Protocol: Approximately 1.5×10^6 T84 cells were seeded into 100 mm dishes and cultured essentially as described (Shailubhai et al. 2000). At 85-90% confluence, cells were washed and treated with 10 μg/ml lipopolysaccharides (LPS) from Escherichia coli (Sigma-Aldrich, St. Louis, Mo.) for 4 h. Subsequent to LPS treatment, cells were washed and replenished with fresh media containing 8-Bromo-cyclic GMP (8-Br-cGMP) at 0, 0.1, 1, 10, 100 and 1000 μM (Enzo Life Science, Farmingdale, N.Y.), or SP-333 at 0, 0.01, 0.1, 1 and 10 μM together with 500 μM of phosphodiesterase inhibitor Zaprinast (Sigma-Aldrich, St. Louis, Mo.) for 16 h before harvest. For analyzing phosphorylation status of IKK-α/β, T84 cells were stimulated with LPS (10 μg/ml) for 4 h followed by treatment with 0.1 and 1.0 μM of SP-333 in the presence of 500 μM Zaprinast, for 2 h. The control cells (without LPS treatment) were washed and refilled with fresh media and harvested simultaneously with treated cells. Nuclear and cytosolic extracts were prepared by the previously described method (Aiamkitsumrit et al. 2007). Protein concentration was measured with a Bio-Rad protein assay kit (Bio-Rad, Hercules, Calif.). The extracts were stored at −80° C. until use.
T84 cells at 85-90% confluence were washed and treated with 10 μg/ml Escherichia coli LPS (Sigma-Aldrich, St. Louis, Mo.) for 4 h.
Western Blot analysis: This was performed essentially as described^21 employing either 50 μg of cytoplasmic or 25 μg proteins of the nuclear fractions. The blots were probed overnight with primary antibodies of interest (anti-p65 antibody, 1:200 dilution; anti-IκB antibody 1:500 dilution; anti-phosphorylated p65 antibody, 1:250 dilution; anti-phosphorylated IκB antibody 1:250 dilution; all were from Santa Cruz Biotechnology (Santa Cruz, Calif.). Anti-IKK-β and phosphorylated IKK-α/β (Ser 176/180) were purchased from Cell Signaling Technology, Boston, Mass. and used at 1:500 dilution; anti-mouse or anti-rabbit antibodies conjugated to […] were used for chemiluminescence detection as recommended by manufacturer (GE Healthcare, Piscataway, N.J.).

Src = test: Activation of Src and GCRA-mediated cGMP production by T84 cells (FIG. 13); assay type: cell-based, human; conditions: activation of Src
NF-κB [4] = test: Inhibition of NF-κB signaling in LPS-stimulated T84 cells, Western blot; assay type: cell-based, human; conditions: zaprinast 500 μM alone
[5] = assay type: in vitro ADME
Protocol: The potency of test peptides to stimulate cGMP synthesis in T84 cells was assayed by a published procedure (Shailubhai et al. 2000). Briefly, confluent monolayers of T-84 cells in 24-well plates were washed twice with 250 μl of DMEM containing 50 mM HEPES (pH 7.4), pre-incubated at 37° C. for 10 min with 250 μl of DMEM containing 50 mM HEPES (pH 7.4) and 1 mM isobutylmethylxanthine (IBMX), followed by incubation with test peptide for 30 min. The medium was aspirated, and the reaction was terminated by the addition of 3% perchloric acid. Following centrifugation, and neutralization with 0.1 N NaOH, the resulting supernatant was used directly for measurements of intracellular cGMP using an ELISA kit (Caymen Chemical, Ann Arbor, Mich.). Results are expressed as pmol of cGMP/mg of protein in the cell extracts.
Plecanatide and SP-333 were incubated in simulated intestinal fluid (SIF) for 6-24 h. Inactivated SIF was used as a control. Following the treatment, samples were analyzed by HPLC by cGMP production in T84 cells. […] The active metabolite, SP-338 was characterized by MS and MS/MS and identified to be formed via removal of carboxyl terminal leucine possibly due to cleavage by carboxypeptidases.

[6] = target: guanylate cyclase C (GC-C) receptor (human, UniProt P25092 24-1073); test: cell-based or functional assay
[7] = 5-ASA 100 mg/kg, vs DSS alone or DSS plus vehicle

Sequence of guanylate cyclase C (GC-C) receptor (P25092 24-1073): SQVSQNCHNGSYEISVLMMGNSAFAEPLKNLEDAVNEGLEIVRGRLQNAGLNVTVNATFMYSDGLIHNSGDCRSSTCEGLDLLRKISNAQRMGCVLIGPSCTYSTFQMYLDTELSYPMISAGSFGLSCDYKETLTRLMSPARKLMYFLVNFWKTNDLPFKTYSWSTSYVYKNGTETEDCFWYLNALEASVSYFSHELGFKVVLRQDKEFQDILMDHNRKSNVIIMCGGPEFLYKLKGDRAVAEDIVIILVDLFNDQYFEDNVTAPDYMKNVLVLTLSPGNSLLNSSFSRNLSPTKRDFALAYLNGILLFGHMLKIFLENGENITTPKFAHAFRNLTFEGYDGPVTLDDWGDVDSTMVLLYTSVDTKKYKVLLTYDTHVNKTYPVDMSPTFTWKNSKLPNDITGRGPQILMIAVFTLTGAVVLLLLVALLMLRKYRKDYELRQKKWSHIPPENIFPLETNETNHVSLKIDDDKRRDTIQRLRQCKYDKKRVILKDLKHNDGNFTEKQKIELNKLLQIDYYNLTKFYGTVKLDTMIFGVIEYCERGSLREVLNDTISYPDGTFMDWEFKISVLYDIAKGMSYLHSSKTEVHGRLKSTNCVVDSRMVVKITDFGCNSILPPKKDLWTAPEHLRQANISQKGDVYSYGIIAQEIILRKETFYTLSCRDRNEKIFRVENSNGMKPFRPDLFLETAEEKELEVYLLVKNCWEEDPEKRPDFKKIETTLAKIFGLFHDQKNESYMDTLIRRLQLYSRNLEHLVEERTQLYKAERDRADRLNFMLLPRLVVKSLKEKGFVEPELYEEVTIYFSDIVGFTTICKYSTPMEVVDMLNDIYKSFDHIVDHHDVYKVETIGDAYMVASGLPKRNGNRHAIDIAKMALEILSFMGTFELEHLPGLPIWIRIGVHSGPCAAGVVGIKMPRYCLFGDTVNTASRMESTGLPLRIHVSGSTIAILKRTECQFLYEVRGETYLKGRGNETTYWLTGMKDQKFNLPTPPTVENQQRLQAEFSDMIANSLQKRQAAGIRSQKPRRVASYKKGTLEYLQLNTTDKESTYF

Molecule: Nc1ccc(O)c(C(=O)O)c1 [5-ASA, 5-aminosalicylic acid, reference compound]
MPO activity compared to DSS treated animals [1]: considerably reduced
initial MPO activity ([1]; p=0.010): 0.029±0.004 units/minute
proportion of Ki-67 positive crypts [2]: 53.5±12.33%
histological evaluation of colon tissues (crypts) (DSS-induced colitis; 5-ASA 100 mg/kg): only patchy loss of crypts
mean DAI scores (DSS-induced colitis; [7]): lower
mean scores of colitis severity (DSS-induced colitis; [7]): lower
histopathology score (DSS-induced colitis; DSS+5-ASA 100 mg/kg, representative image FIG. 10F): 2

Molecule: Nc1nc2c(nc(Br)n2[C@@H]2O[C@@H]3COP(=O)(O)O[C@H]3[C@H]2O)c(=O)[nH]1 [8-Br-cGMP, 8-Bromo-cyclic GMP, reference compound]
levels of phospho-p65 (NF-κB [3]; LPS 10 μg/ml 4 h, then 8-Br-cGMP (1 mM) 16 h, zaprinast 500 μM): reduced levels of phospho-p65 in a dose-dependent manner

Molecule: [Cl][Hg][Cl] [HgCl2]
GCRA-mediated cGMP production by T84 cells (Src): inhibited

Molecule: CCCOc1ccccc1-c1nc2nn[nH]c2c(=O)[nH]1 [zaprinast, reference compound]
NF-κB activation (NF-κB [3]; zaprinast 500 μM alone, T84 cells): did not inhibit NF-κB activation
cGMP levels (NF-κB [4]): did not increase cGMP levels

Molecule: Asn^1-Asp^2-Glu^3-Cys^4-Glu^5-Leu^6-Cys^7-Val^8-Asn^9-Val^10-Ala^11-Cys^12-Thr^13-Gly^14-Cys^15 (NDECELCVNVACTGC) [SP-338]
biological activity of the major metabolite of plecanatide in SIF [5]: appears to retain biological activity

cGMP accumulation in T84 cells (EC50) [6]: 283 nM
cGMP synthesis in T84 cells (EC50) [6]: 283 nM
Molecule: [dN]DECELCVNVACTGC[dL] (disulfide 4-12, 7-15) [SP-333]

cGMP accumulation in T84 cells (EC50) [6]: 189 nM
Molecule: NDECELCVNVACTGCL (disulfide 4-12, 7-15) [Plecanatide (SP-304)]
